Assay results from US11214803B2, “Modulators of YAP1 expression” (Ionis Pharmaceuticals, Inc., priority 2019, dated 2022).
Marks after values point to notes of the source that are not given here. Strand notation (5' to 3'): a small letter for the sugar, then the base; units joined by * are phosphorothioate-linked, units joined directly phosphodiester-linked; [ ] holds rarer units or linkages, { } end groups; capitals alone tell only the bases. k = constrained ethyl (cEt); [5mC] = 5-methylcytosine; d = 2'-deoxy (DNA)

System: Yap1 mRNA
Test: Antisense inhibition of human Yap1 in A-431 cells by cEt gapmers, single dose (Example 2, RTS4814)
Format: cell-based
How it was run: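 A-431 cells (5,000/well) received 2,000 nM oligonucleotide by free uptake for about 48 h. Yap1 mRNA was then quantified by RT-qPCR with primer probe set RTS4814, normalized to RIBOGREEN total RNA, and reported as % of untreated control; asterisked values mark oligos inside the amplicon.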

[1] = Table 22, Yap1 mRNA as percent of untreated control, 3-10-3 cEt gapmers, single dose
[2] = Table 24, Yap1 mRNA as percent of untreated control, 3-10-3 cEt gapmers targeting SEQ ID NO.: 1, and 2
[3] = Table 32, Yap1 mRNA, percent of untreated control, 3-10-3 cEt gapmers targeting SEQ ID NO.: 1, and 2
[4] = Table 33, Yap1 mRNA, percent of untreated control, 3-10-3 cEt gapmers targeting SEQ ID NO.: 1, and 2
[5] = Table 23, Yap1 mRNA as percent of untreated control, 3-10-3 cEt gapmers, single dose
[6] = Table 20, Yap1 mRNA, percent of untreated control, 3-10-3 cEt gapmers targeting SEQ ID NO.: 1 and 2
[7] = Table 18, A-431 cells, 5,000 cells per well, free uptake, 2,000 nM modified oligonucleotide, approx. 48 hours, RTS4814, normalized to RIBOGREEN, Yap1 mRNA as percent of untreated control
[8] = Table 21, Yap1 mRNA, percent of untreated control, 3-10-3 cEt gapmers targeting SEQ ID NO.: 1 and 2
[9] = Table 19, A-431 cells, 5,000 cells per well, free uptake, 2,000 nM modified oligonucleotide, approx. 48 hours, RTS4814, normalized to RIBOGREEN, Yap1 mRNA as percent of untreated control
[10] = Table 6, A-431 cells, 5,000 cells per well, free uptake, 2,000 nM modified oligonucleotide, approx. 48 hours, RTS4814, normalized to RIBOGREEN, Yap1 mRNA relative to untreated control cells

Substance: 1074312 (antisense kA*kT*kA*dT*dT*d[5mC]*d[5mC]*dG*d[5mC]*dA*dT*dT*dG*k[5mC]*k[5mC]*kT) [Compound 1074312]
- YAP1 (% UTC) [1]: 18 % UTC

Substance: 1075370 (k[5mC]*kT*kT*dA*d[5mC]*dG*dA*dA*dT*d[5mC]*dA*d[5mC]*dA*kT*kA*kT; antisense) [Compound 1075370]
- YAP1 (% UTC) [2]: 32 % UTC

Substance: 1076338 (antisense k[5mC]*kA*kT*dT*dA*dA*dA*d[5mC]*d[5mC]*dA*dG*dG*dG*kA*k[5mC]*kT) [compound 1076338]
- YAP1 (% UTC) [3]: 33 % UTC

Substance: 1075283 (antisense k[5mC]*kG*kA*dA*dT*dA*dT*dA*dG*dA*dA*dA*dA*kA*kT*kG) [compound 1075283]
- YAP1 (% UTC) [4]: 90 % UTC

Substance: 1074121 (antisense kT*kG*k[5mC]*dG*dA*dG*dG*d[5mC]*dA*d[5mC]*dT*d[5mC]*dG*kG*kA*k[5mC]) [Compound 1074121]
- YAP1 (% UTC) [5]: 87 % UTC

Substance: 1075498 (k[5mC]*kA*kT*dT*dA*dT*dA*dT*dA*dA*dT*dG*d[5mC]*kA*kG*kG; antisense) [Compound 1075498]
- YAP1 (% UTC) [2]: 9 % UTC

Substance: 1075206 (antisense kT*kA*kT*dT*dA*dA*dA*dT*dG*dA*dG*d[5mC]*dA*k[5mC]*k[5mC]*kA) [Compound 1075206]
- YAP1 (% UTC) [6]: 36 % UTC

Substance: 1075718 (k[5mC]*k[5mC]*kA*d[5mC]*dT*dA*dA*dA*dA*d[5mC]*d[5mC]*dA*dA*kG*kT*kT; antisense) [Compound 1075718]
- YAP1 (% UTC) [6]: 48 % UTC

Substance: 1076147 (kA*kT*kT*dA*dA*d[5mC]*dT*d[5mC]*dA*d[5mC]*dG*dA*dA*kG*kA*k[5mC]; antisense) [compound 1076147]
- YAP1 (% UTC) [4]: 25 % UTC

Substance: 1074692 (antisense k[5mC]*k[5mC]*k[5mC]*d[5mC]*d[5mC]*d[5mC]*d[5mC]*dA*dA*dA*d[5mC]*dT*dT*kT*k[5mC]*k[5mC]) [Compound 1074692]
- YAP1 (% UTC) [7]: 101 % UTC

Substance: 1074471 (k[5mC]*k[5mC]*k[5mC]*d[5mC]*d[5mC]*d[5mC]*d[5mC]*dA*d[5mC]*d[5mC]*dG*dA*d[5mC]*k[5mC]*k[5mC]*kT; antisense) [Compound 1074471]
- YAP1 (% UTC) [8]: 69 % UTC

Substance: 1074930 (antisense k[5mC]*kT*kA*dT*dA*d[5mC]*dA*dA*d[5mC]*dA*dG*dG*d[5mC]*k[5mC]*kT*kG) [compound 1074930]
- YAP1 (% UTC) [3]: 84 % UTC

Substance: 1076496 (kG*kT*kT*dA*dA*dA*dG*dA*d[5mC]*d[5mC]*dA*dA*d[5mC]*kA*k[5mC]*kA; antisense) [compound 1076496]
- YAP1 (% UTC) (Yap1 mRNA as percent of untreated control, A-431 cells, 3-10-3 cEt gapmers targeting SEQ ID NO.: 1, and 2, Table 30): 81 % UTC

Substance: 1075623 (k[5mC]*kA*kT*dA*dA*dT*d[5mC]*dA*dA*dA*dA*dT*dG*kG*kG*k[5mC]; antisense) [Compound 1075623]
- YAP1 (% UTC) [8]: 48 % UTC

Substance: 1074441 (k[5mC]*kA*kA*dA*d[5mC]*dT*dA*dA*dA*dT*dG*d[5mC]*dT*kG*kT*kG; antisense) [Compound 1074441]
- YAP1 (% UTC) [5]: 5* % UTC

Substance: 1074866 (kA*kA*k[5mC]*dA*dT*dA*dT*dG*dA*dG*d[5mC]*dA*dT*kG*k[5mC]*kT; antisense) [compound 1074866]
- YAP1 (% UTC) [3]: 30 % UTC

Substance: 1074150 (antisense kG*kG*k[5mC]*d[5mC]*dG*dA*dG*dG*dT*dG*dG*dA*dG*kA*kA*kG) [Compound 1074150]
- YAP1 (% UTC) [6]: 85 % UTC

Substance: 1075269 (antisense kT*kT*kA*dT*dT*dA*dA*d[5mC]*d[5mC]*dT*dG*dG*dA*kG*kA*kG) [Compound 1075269]
- YAP1 (% UTC) [9]: 13 % UTC

Substance: 716570 (kA*kA*kG*dT*dG*dT*dT*dT*dA*dG*dG*d[5mC]*dA*kA*kG*k[5mC]; antisense) [Compound 716570]
- YAP1 (% UTC) [10]: 56 % UTC

Substance: 1074570 (antisense kA*kT*kG*dA*dA*d[5mC]*d[5mC]*dT*dA*d[5mC]*dT*d[5mC]*dA*k[5mC]*kT*kG) [Compound 1074570]
- YAP1 (% UTC) [2]: 12 % UTC

Substance: 1076324 (kG*k[5mC]*kT*d[5mC]*dA*dA*dA*dA*dG*dG*dT*d[5mC]*dT*k[5mC]*kT*k[5mC]; antisense) [Compound 1076324]
- YAP1 (% UTC) [7]: 13 % UTC

Substance: 1074437 (kA*k[5mC]*kA*dT*dG*dA*dA*dG*d[5mC]*dA*dT*d[5mC]*dT*kG*kA*k[5mC]; antisense) [Compound 1074437]
- YAP1 (% UTC) [9]: 4* % UTC

Substance: 716402 (kA*kT*kT*dT*dT*dG*dA*dG*dT*d[5mC]*d[5mC]*d[5mC]*dA*k[5mC]*k[5mC]*kA; antisense) [Compound 716402]
- YAP1 (% UTC) [10]: 85 % UTC

Substance: 716495 (kG*kT*kT*dA*dT*dG*dA*dA*d[5mC]*d[5mC]*d[5mC]*dT*dT*kG*kA*kA; antisense) [Compound 716495]
- YAP1 (% UTC) [10]: 58 % UTC

Substance: 1076071 (kT*kA*kT*dT*dA*dG*dT*dA*dA*dT*dG*d[5mC]*dA*k[5mC]*kA*kG; antisense) [Compound 1076071]
- YAP1 (% UTC) [8]: 14 % UTC

Substance: 1074152 (antisense k[5mC]*kG*kG*dG*d[5mC]*d[5mC]*dG*dA*dG*dG*dT*dG*dG*kA*kG*kA) [Compound 1074152]
- YAP1 (% UTC) [1]: 77 % UTC

Substance: 716424 (kG*k[5mC]*kA*dA*dT*dG*dG*dA*d[5mC]*dA*dA*dG*dG*kA*kA*kG; antisense) [Compound 716424]
- YAP1 (% UTC) (A-431 cells, 5,000 cells per well, free uptake, 2,000 nM modified oligonucleotide, approx. 48 hours, RTS4814, normalized to RIBOGREEN, Table 4, asterisk (*) = targets amplicon region of primer probe set): 25 % UTC

Substance: 1075941 (kA*kG*kT*d[5mC]*dA*dA*dT*dA*dG*d[5mC]*dA*dA*dT*k[5mC]*kA*k[5mC]; antisense) [Compound 1075941]
- YAP1 (% UTC) [9]: 11 % UTC

Substance: 1074803 (kA*kG*kG*d[5mC]*dA*d[5mC]*dT*dA*d[5mC]*dA*dT*dT*dT*kA*kG*kA; antisense) [compound 1074803]
- YAP1 (% UTC) [4]: 32 % UTC

Substance: 1075538 (kG*kA*kA*dT*dT*dG*dG*dA*dA*d[5mC]*dA*d[5mC]*d[5mC]*kT*k[5mC]*kA; antisense) [compound 1075538]
- YAP1 (% UTC) [3]: 66 % UTC

Substance: 1074599 (antisense kG*k[5mC]*kT*dA*dA*d[5mC]*dT*d[5mC]*dA*dA*dA*dA*d[5mC]*k[5mC]*kT*kT) [Compound 1074599]
- YAP1 (% UTC) [8]: 12 % UTC

Substance: 1076298 (kG*kT*kT*dA*dT*dA*dA*dA*dG*dA*d[5mC]*d[5mC]*d[5mC]*kA*kA*kT; antisense) [Compound 1076298]
- YAP1 (% UTC) [2]: 10 % UTC

Substance: 1074834 (kT*kT*kG*d[5mC]*dG*dA*dG*dG*dA*dT*dA*dA*dA*kA*kT*k[5mC]; antisense) [compound 1074834]
- YAP1 (% UTC) [3]: 14 % UTC

Substance: 1074532 (antisense kG*kA*kA*d[5mC]*dA*d[5mC]*dT*dA*dA*dA*d[5mC]*dT*dA*k[5mC]*kT*kT) [Compound 1074532]
- YAP1 (% UTC) [7]: 59 % UTC

Substance: 1074788 (kT*k[5mC]*kA*dA*d[5mC]*d[5mC]*dA*dT*dA*dA*dG*dT*dA*kG*kA*kT; antisense) [Compound 1074788]
- YAP1 (% UTC) [7]: 25 % UTC

Substance: 1075825 (k[5mC]*k[5mC]*k[5mC]*d[5mC]*dT*dA*dA*dA*dG*dA*dA*dG*dA*kT*kT*kT; antisense) [compound 1075825]
- YAP1 (% UTC) (Yap1 mRNA as percent of untreated control, A-431 cells, 3-10-3 cEt gapmers targeting SEQ ID NO.: 1, and 2, Table 31): 44 % UTC

Substance: 1075658 (kG*kT*kA*dA*dA*dA*dA*dA*d[5mC]*dG*dG*dT*dT*kT*kT*kT; antisense) [Compound 1075658]
- YAP1 (% UTC) [2]: 103 % UTC

Substance: 1074342 (antisense k[5mC]*kA*kT*d[5mC]*d[5mC]*d[5mC]*dG*dG*dG*dA*dG*dA*dA*kG*kA*k[5mC]) [Compound 1074342]
- YAP1 (% UTC) [6]: 56 % UTC

Substance: 1075410 (antisense kG*kA*kT*dT*dA*dA*d[5mC]*dA*dG*d[5mC]*d[5mC]*d[5mC]*dT*kT*kT*kA) [compound 1075410]
- YAP1 (% UTC) [3]: 36 % UTC

Substance: 1074707 (antisense kT*kT*kT*dA*dA*dT*dG*dG*d[5mC]*dA*dG*d[5mC]*dA*k[5mC]*kG*kG) [compound 1074707]
- YAP1 (% UTC) [4]: 36 % UTC

Substance: 1075910 (kG*kA*kA*dA*dT*dA*dA*dG*dG*dA*dG*dT*dA*kG*kG*kT; antisense) [Compound 1075910]
- YAP1 (% UTC) [6]: 93 % UTC

Substance: 1074546 (k[5mC]*kA*k[5mC]*dT*d[5mC]*d[5mC]*d[5mC]*d[5mC]*dT*dA*dG*dG*d[5mC]*kA*k[5mC]*kT; antisense) [compound 1074546]
- YAP1 (% UTC) [3]: 33 % UTC

Substance: 1074795 (k[5mC]*k[5mC]*kA*dA*dA*dT*d[5mC]*dA*dA*dT*dG*dT*dG*k[5mC]*kT*k[5mC]; antisense) [Compound 1074795]
- YAP1 (% UTC) (Table 25, Yap1 mRNA as percent of untreated control, 3-10-3 cEt gapmers targeting SEQ ID NO.: 1, and 2): 4 % UTC

Substance: 1074374 (antisense kT*kG*k[5mC]*dT*dT*dT*dG*dG*dT*dT*dG*dA*dT*kA*kG*kT) [Compound 1074374]
- YAP1 (% UTC) [6]: 13 % UTC

Substance: 1075027 (antisense kA*kA*kA*dT*dT*dT*dG*dA*dA*d[5mC]*dT*dG*d[5mC]*k[5mC]*k[5mC]*kA) [compound 1075027]
- YAP1 (% UTC) [4]: 28 % UTC

Substance: 716453 (kG*kG*kT*dA*dA*dA*dA*dA*dA*dA*dA*d[5mC]*d[5mC]*kA*kG*kG; antisense) [Compound 716453]
- YAP1 (% UTC) [10]: 87 % UTC
